For eleven molecules, logD results are on record in the SangsterLogP compilation.

SMILES strings stand for the structures.

Broadly, the logD is the decadic logarithm of the distribution of all forms, ionised or not, between an organic phase and buffer at a given pH. A lower logD goes with a more hydrophilic compound.

A short description of this data set: method code SF-HPLC, from DOI: 10.1002/jps.2600750109, PMID: 3958903. Conditions: pH 7.4.
Regarding `CCCCCCOC(=O)C(CC)C(CO)Cc1cncn1C` (stereo unspecified), the logD was found to be 2.71. As for `CCC(C(=O)OCCc1ccccc1)C(CO)Cc1cncn1C` (stereo unspecified), the figure is 2.31; as for `CCOC(=O)CC(CO)C(CC)c1cncn1C` (stereo unspecified), 0.73; as for `CCC(C(=O)OCc1ccccc1)C(CO)Cc1cncn1C` (stereo unspecified), 1.97.

As to `CC[C@H](C(=O)OCc1ccc(Cl)cc1)[C@H](CO)Cc1cncn1C`, the log distribution coefficient (logD) stood at 2.69.

Take `CC[C@H](C(=O)OCc1ccccc1C)[C@H](CO)Cc1cncn1C`: the logD turned out to be 2.42. As for `O=C(NCN1CCOCC1)c1ccccc1O`, the figure is 1.27; as for `CCCCOC(=O)[C@@H](CC)[C@H](CO)Cc1cncn1C`, 1.73.

In turn, `CC[C@H](C(=O)OCc1ccc(C)cc1)[C@H](CO)Cc1cncn1C` returned a logD of 2.46. `CCC(C(=O)OC(C)c1ccccc1)C(CO)Cc1cncn1C` (stereo unspecified) displayed a logD of 2.23. Regarding `CC(C)(C)C(=O)OCOc1ccccc1C(=O)NCN1CCOCC1`, the log distribution coefficient (logD) is 1.81.
